Reference: paper PMC4138991, “Building a Better Dynasore: The Dyngo Compounds Potently Inhibit Dynamin and Endocytosis” (Traffic (Copenhagen, Denmark), 2013)

Columns and labels:
[1] = target: T1, DynI (rec), full-length human dynamin I (Homo sapiens, UniProt Q05193); assay: PS-stimulated GTPase assay with recombinant dynamin I from Sf21 cells; assay type: biochemical; settings: for IC50: DynI 20 nM, no unit in table; for DynI selectivity ratio: DynI (rec) versus DynII (rec)
T1 sequence (Q05193 1-864): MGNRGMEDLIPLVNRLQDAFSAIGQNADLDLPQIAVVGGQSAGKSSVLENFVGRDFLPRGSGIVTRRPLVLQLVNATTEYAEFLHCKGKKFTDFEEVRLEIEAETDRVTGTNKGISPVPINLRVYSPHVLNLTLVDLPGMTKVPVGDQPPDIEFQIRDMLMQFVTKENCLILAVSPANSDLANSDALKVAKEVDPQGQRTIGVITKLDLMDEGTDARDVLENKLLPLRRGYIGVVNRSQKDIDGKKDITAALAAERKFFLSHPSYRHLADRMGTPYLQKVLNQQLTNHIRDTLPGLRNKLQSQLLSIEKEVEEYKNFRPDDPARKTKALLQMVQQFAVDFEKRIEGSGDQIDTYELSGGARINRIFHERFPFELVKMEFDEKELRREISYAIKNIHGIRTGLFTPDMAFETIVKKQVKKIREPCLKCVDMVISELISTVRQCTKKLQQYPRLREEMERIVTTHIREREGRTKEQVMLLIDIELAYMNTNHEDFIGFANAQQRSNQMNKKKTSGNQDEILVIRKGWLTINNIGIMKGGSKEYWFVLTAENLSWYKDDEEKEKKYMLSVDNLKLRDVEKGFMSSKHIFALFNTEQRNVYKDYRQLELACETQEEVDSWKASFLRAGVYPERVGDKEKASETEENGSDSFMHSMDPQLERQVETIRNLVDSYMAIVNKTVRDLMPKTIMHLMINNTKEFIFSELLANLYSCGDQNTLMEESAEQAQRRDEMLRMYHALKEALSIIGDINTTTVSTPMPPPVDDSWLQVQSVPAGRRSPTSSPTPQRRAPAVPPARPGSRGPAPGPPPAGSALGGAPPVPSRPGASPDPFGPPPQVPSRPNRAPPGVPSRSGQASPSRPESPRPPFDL
Source text: Recombinant dynamin I was used only for the data in Table 2. The dynamin antibodies were from: Dynamin I—in‐house YF2 antibodies, raised in rabbits against two different synthetic peptides: dynamin I 629‐647 ([…]) and dynamin I 765–778 ([…]), used at 1/2000 dilution, as previously described 53; Dynamin II—Santa Cruz (C‐18, sc‐6400, used at 1/1000) and Dynamin III—Santa Cruz (P‐13, sc‐69472, used at 1/500 dilution).
The Malachite Green colorimetric GTPase assay was as described 10. Dynamin I activity was measured in its SAI activity state or was stimulated by three different methods. As each stimulus activates dynamin to different extents, each assay required different dynamin concentrations. First, maximal dynamin activity was stimulated by sonicated PS liposomes 10. Purified dynamin I (10–20 nM, diluted in: 6 mM Tris–HCl, 20 mM NaCl and 0.01% Tween 80, pH 7.4) was incubated in 96‐well plates in GTPase buffer (5 mM Tris–HCl, 10 mM NaCl, 2 mM Mg^2+, 0.05% Tween 80, pH 7.4, 1 µg/mL leupeptin and 0.1 mM PMSF) and GTP 0.3 mM in the presence of test compound for 30 min at 37°C in a final assay volume of 150 μL. Reactions were terminated with 10 μL of 0.5 M ethylenediaminetetraacetic acid (EDTA) pH 7.4 and Malachite Green solution (40 μL: 2% w/v ammonium molybdate tetrahydrate, 0.15% w/v malachite green and 4 M HCl) was added for 5 min. Second, dynamin (20 nM) was stimulated by 10 µg/mL of taxol‐stabilized preformed bovine brain microtubules (Cytoskeleton, Inc) using the same protocol. Third, dynamin I (50 nM) was stimulated by 1 μM of recombinant growth factor receptor‐bound protein 2 (grb2), a SH3 (Src homology)‐containing protein that stimulates dynamin about 5–10 times less efficiently than liposomes or microtubules 54. The assay conditions were as described above. Finally, dynamin (500 nM) SAI activity was measured using high concentrations of dynamin, which promote its cooperative self‐assembly into rings (but not helices) 26. The final DMSO concentration in the GTPase or endocytosis assays was at most 3.3 or 1%, respectively, but typically was at 1%. The GTPase assay for dynamin I was unaffected by DMSO up to 3.3%. Compounds were dissolved as 30 mM stocks in 100% DMSO. These stock solutions can be stored at −20°C for several months. Compounds were subsequently diluted into solutions of 50% DMSO made up in 20 mM Tris–HCl pH 7.4 and diluted again into the final assay. For analysis of the kinetics of 4a inhibition, dynamin I at a final concentration of 17 nM was incubated with GTPase buffer containing PS (2 µg/mL) and varying amounts of GTP (50–250 μM) in the presence of 4a at a concentration range between 0.5 and 6 μM. […] After the Vmax and Km values were determined, the data were transformed using the Lineweaver–Burke equation, 1/v = 1/Vmax + (Km/Vmax)(1/[S]).

cultured CGNs = assay: HRP labeling of endocytosis pathways (electron microscopy) in CGNs; assay type: cell-based, rat; settings: 30 μM, 15 min, 80 Hz 10 s
Protocol: Granule neuron cultures were prepared from the cerebella of 7‐day‐old rat pups as previously described 57. In all experiments, neurons were used between 8 and 10 days in vitro.
Granule neurons were processed for electron microscopy as previously described 40. Briefly, cells were transferred to incubation medium for 10 min and subsequently incubated with or without 30 μM 4a for 15 min. Cultures were next stimulated with 800 action potentials (80 Hz) in incubation medium supplemented with HRP (10 mg/mL) in the presence or absence of 4a. Cells were fixed in a 2% solution of glutaraldehyde in phosphate‐buffered saline for 30 min at 37°C directly after stimulation. After washing with 100 mM Tris (pH 7.4) cells were exposed to 0.1% diaminobenzidine and 0.2% H2O2 in 100 mM Tris. On development of color, cells were washed with 100 mM Tris and subsequently stained with 1% osmium tetroxide for 30 min. After washing, cells were post‐stained with 2% uranyl acetate for 15 min, then dehydrated using ethanol series and polypropylene oxide and embedded using Durcupan. Samples were sectioned, mounted on grids and viewed using a FEI Tecnai 12 transmission electron microscope. Intracellular structures that were less than 100 nm in diameter were arbitrarily designated to be synaptic vesicles, whereas larger structures were designated to be endosomes.

In the case of `O=C(N/N=C/c1cc(O)c(O)cc1O)c1cc2ccccc2cc1O` [4a, (E)-3-Hydroxy-N'-(2,4,5-trihydroxybenzylidene) -2-naphthohydrazide], the IC50 ([1]; Absence of Tween) is reported as 1.1 ± 0.2 µM, the DynI selectivity ratio ([1]; Absence of Tween) is reported as 2.1 and the IC50 ([1]; Presence of Tween) is reported as 30 ± 8.2 µM. For the same molecule, the DynI selectivity ratio ([1]; Presence of Tween) was 3.1, the “number of HRP-labeled endosomes (ADBE)” value (cultured CGNs) was “caused a decrease in the number” and the “number of HRP-labeled synaptic vesicles (neuronal CME)” value (cultured CGNs) was “significant reduction in the number of labeled synaptic vesicles”.
